Reference: US9738615B2, “Cyclophilin D inhibitors” (The University of Kansas, priority 2014, dated 2017)
“Also recorded” adds a separate entry of the source.

Assays:
[1] = Blood brain barrier penetration, LC-MS/MS of CSF, plasma and brain; assay type: in vivo; settings: mice, 10 mg/kg dose i.v., CSF and brain 4 hours after administration
Method: Samples were collected 4 hours after i.v. administration of 10 mg/kg of Compound 6A in mice. […] Samples were collected 4 hours after i.v. administration of 10 mg/kg of Compound 6B in mice. […] Samples were collected 4 hours after i.v. administration of 10 mg/kg of Compound 6C in mice.
Additionally a selective and sensitive method for detecting the presence of four compounds (Compounds 6A, 6B, 6C & 9) as CypD inhibitors in mouse plasma, brain and artificial cerebrospinal fluid is based on high performance liquid chromatography tandem mass spectrometry. Mass spectra were generated using Micromass Quattro Ultima “triple” quadrupole mass spectrometer equipped with Electrospray ionization interface. The method used for pharmacokinetic studies of compounds in mouse cerebrospinal fluid, plasma, and brain is accurate, precise, and specific with no matrix effect.

[2] = molecular target: CypD PPIase (Homo sapiens, UniProt P30405); test: CypD PPIase enzyme activity inhibition (real-time kinetics assay); assay type: biochemical; settings: for Inhibition of CypD PPIase activity (in words): reaction progress curves, 0.39 to 50 uM (Compound 9: 0.19 to 100 uM), 25° C.
Method: The ability of CypD inhibitors to inhibit CypD PPIase enzyme activity was determined using a previously utilized “standard” procedure (Kofron, J. L.; Kuzmic, P.; Kishore, V.; Colon-Bonilla, E.; Rich, D. H., Determination of kinetic constants for peptidyl prolyl cis-trans isomerases by an improved spectrophotometric assay. Biochemistry 1991, 30, 6127-34). The results are presented in FIGS. 2A-2D and compared to CsA in FIG. 2E.
Linearity was maintained up to 5 minutes of incubation at 25° C. […] Linearity was maintained up to 5 minutes of incubation at 25° C. […] FIG. 10 show reaction progress curves collected for CypD activity in DMSO alone or at various Compound 6C concentrations ranging from 0.39 to 50 uM. Linearity was maintained up to 5 minutes of incubation at 25° C. […] FIG. 11 show reaction progress curves collected for CypD activity in DMSO alone or at various Compound 9 concentrations ranging from 0.19 to 100 uM. Linearity was maintained up to 5 minutes of incubation at 25° C.
Since inhibition of CypD PPIase activity was essential for potentiation of Aβ cytotoxicity, Aβ-induced cytotoxicity can presumably be decreased if the Aβ-CypD interaction is blocked with small-molecule inhibitors like Compound 9.

[3] = system: SK-N-SH cells; test: Cytochrome c oxidase (CcO) activity in Aβ1-42-treated cells; assay type: cell-based
Method: The effect of the CypD inhibitors on cytochrome c oxidase (CcO) was studied. The effect of the CypD inhibitors on Aβ-induced mitochondrial respiratory function was assessed by determining cytochrome c oxidase (CcO) activity. CcO is a vital enzyme associated with the mitochondrial electron transport chain. SK-N-SH cells were treated for 48 hours with 5 μM of oligomer Aβ1-42 in the presence of 10-20 μM of CypD inhibitor C-9, after which samples were tested for CcO enzyme activity levels.

[4] = molecular target: human recombinant CypD protein (Homo sapiens, UniProt P30405); test: Surface plasmon resonance (SPR) binding to immobilized CypD; settings: for Kd: 1:1 Langmuir binding fit, CypD immobilized on CM5 chip, read-out: KD (equilibrium dissociation constant); for Binding to CypD (in words): dose dependent
Method: In vitro SPR was used to verify the ability of the CypD inhibitors to bind to human recombinant CypD protein, which correlates with its potential CypD inhibitory activity.
Surface plasmon resonance (SPR) analysis of CypD-Pyrimidine derivative binding interaction, where the globally fit data (black lines) were overlaid with experimental data (greyish lines). Human recombinant CypD protein (10 μg/ml) was immobilized directly on the hydrophilic carboxy methylated dextran matrix of the CM5 sensor chip (Biacore-3000) using the standard primary amine coupling reaction according to standard procedures. Compound 9 (2.5, 5, 10, 15, 20 μM) was injected at a flow rate of 40 μl/min for the determination of the kinetic and equilibrium constants. All data analyses were carried out using BIA evaluation software, and sensor grams were processed by automatic correction for nonspecific bulk refractive index.
The equilibrium dissociation constant (KD) was determined using a 1:1 Langmuir binding fit model and the association (kon) and dissociation (koff) rate constants were determined using Equations (1) and (2). dR/dt=kon×C×(Rmax−R)−koff×R (1)
Where R represents the response unit, C is the concentration of the analyte, and KD=koff/kon (2)
The obtained results were evaluated by χ^2 analysis and the kinetic parameters for Compound 9 are provided.

[5] = system: SK-N-SH cells; test: Aβ-induced neuronal cell death, MTT reduction assay; assay type: cell-based; settings: 10 and 20 μM
Text: Assays examined the effect of the CypD inhibitor compounds on Aβ-induced neuronal cell death, commonly observed in AD. […] The addition of various dosages of inhibitor to the cells in the presence of Aβ1-42 increased cell viability. […] Thus, this evidence provides support that inhibition of CypD with specific inhibitors can provide a beneficial and powerful therapeutic tool in AD treatment.

[6] = system: SK-N-SH cells; test: Cellular ATP levels in Aβ1-42-treated cells; assay type: cell-based; settings: 48 hours
Method: The effect of the CypD inhibitors on the levels of adenosine-5′-triphosphate (ATP) was studied. To determine the effect of the CypD inhibitors on Aβ-induced energy metabolism impairment, cellular ATP levels were analyzed. SK-N-SH cells were exposed to 5 μM of Aβ1-42 in the presence of 10-20 μM of Compound 9. After 48 hours, we measured the ATP concentrations in the cell lysates.

[7] = system: SK-N-SH cells; test: MTT reduction cell viability assay (toxicity of inhibitor alone); assay type: cell-based; settings: 0, 5, 10, 25, 50, and 100 μM in healthy SK-N-SH cells
Text: The effect of the CypD inhibitors on cell viability was studied. Excellent reversal effects of the CypD inhibitor on Aβ-affected processes were observed, including diminished mitochondrial swelling, and enhanced CcO activity and ATP production, assessment of the overall cell health of SK-N-SH cells treated with the CypD inhibitors were studied. A wide dosing range was utilized to examine the effect of the CypD inhibitors on cell viability using an MTT (3-(4,5-dimethylthiazol-2-yl)-2,5-diphenyltetrazolium_bromide) reduction assay (0, 5, 10, 25, 50, and 100 μM of inhibitor diluted in cell culture medium).

[8] = system: cortical mitochondria; test: Calcium-induced mitochondrial swelling assay; set-up: species or system mice; settings: mouse cortical mitochondria treated with Ca2+, compound added dose-dependently
Text: Mitochondrial swelling in response to calcium was also studied. It is known that CypD-deficient cortical mitochondria are resistant to Aβ- and calcium (Ca^2+)-induced mitochondrial swelling and mitochondrial permeability transition. […] In order to determine the relationship between Ca^2+ and mitochondrial swelling, cortical mitochondria were isolated from mice and subjected to a swelling assay. Mitochondria treated with Ca^2+ experienced excessive swelling.
The fact that brain mitochondrial swelling was not affected by the inhibitors alone implies a symbiotic relationship between Ca^2+ and the inhibitor.

CypD PPIase, sequence (P30405 30-207): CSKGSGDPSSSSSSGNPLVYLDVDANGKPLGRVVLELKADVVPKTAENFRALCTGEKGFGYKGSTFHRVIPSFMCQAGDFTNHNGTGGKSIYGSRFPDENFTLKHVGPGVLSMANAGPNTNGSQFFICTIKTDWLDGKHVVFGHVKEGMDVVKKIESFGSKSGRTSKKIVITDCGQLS
human recombinant CypD protein, sequence (P30405 30-207): as above

Row | SMILES | Blood-brain barrier penetration [1] | Inhibition of CypD PPIase activity (in words) [2] | Aβ-induced mitochondrial dysfunction (cytochrome c oxidase and ATP levels) [3] | Kd [4] [nM] | Binding to CypD (in words) [4] | IC50 ([2]; real time fluorescence monitoring, read-out: IC50 inhibiting PPIase activity of CypD) [nM] | Cell viability in the presence of Aβ1-42 (MTT reduction) [5] | ATP levels in Aβ-treated cells ([6]; 5 μM Aβ1-42, 10-20 μM compound, cell lysates) | ATP levels in cells exposed to inhibitor versus vehicle-treated cells without Aβ1-42 ([6]; 10-20 μM compound) | Cell viability (MTT reduction), inhibitor alone [7] | Calcium-induced mitochondrial swelling [8] | CcO activity in Aβ-treated cells ([3]; 5 μM oligomer Aβ1-42, 10-20 μM inhibitor, 48 hours)
1 | CCOC(=O)C1=C(C)N=C2SC=C(CCc3ccccc3)N2C1c1cccc([N+](=O)[O-])c1 (centres unmarked) [Compound 6A] | penetrate the blood-brain barrier | inhibits CypD activity; also recorded: effective in reducing CypD peptidyl prolyl isomerase enzyme activity | abolished Aβ-induced mitochondrial dysfunction |  |  |  |  |  |  |  |  | 
2 | CCOC(=O)C1=C(C)N=C2SC=C(CCc3ccccc3)N2C1c1ccc(F)cc1 (centres unmarked) [Compound 6C] | penetrate the blood-brain barrier | inhibits CypD activity; also recorded: effective in reducing CypD peptidyl prolyl isomerase enzyme activity | abolished Aβ-induced mitochondrial dysfunction |  |  |  |  |  |  |  |  | 
3 | CCOC(=O)C1=C(C)N=C2SC=C(CCc3ccccc3)N2C1c1ccc(O)cc1 (centres unmarked) [Compound 6B] | penetrate the blood-brain barrier | inhibits CypD activity; also recorded: effective in reducing CypD peptidyl prolyl isomerase enzyme activity | abolished Aβ-induced mitochondrial dysfunction | 248 | high binding affinity |  |  |  |  |  |  | 
4 | Cc1nc(-c2ccc(OCC(C)C)c(C#N)c2)sc1C(=O)Nc1ccc(S(N)(=O)=O)cc1 [Compound 9] | penetrate the blood-brain barrier | inhibits CypD activity; also recorded: effective in reducing CypD peptidyl prolyl isomerase enzyme activity | abolished Aβ-induced mitochondrial dysfunction | 149 | high binding affinity | 1490 ± 200 | significant effect on cell health | rescued ATP concentrations | comparable to those of vehicle-treated cells | no significant effect | swelling was diminished | rescued CcO activity
